Results from the supplement of paper PMC8149375.

Columns and labels:
Conditions in all cases: treatment: drug + dasatinib (fixed dose, not stated); 5 days
786-O [1] = test: GI50 of drug in presence of dasatinib; higher = less potent
Procedure: (§1)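 Primary HTS combination arm: 8 RCC cell lines treated with 8 doses (up to 10 uM) of each library drug plus a fixed dose of dasatinib (dose not stated) for 5 days; viability read by CellTiter-Glo and normalised to DMSO. GI50 was fitted with XLfit, AUC is the area under the dose-response curve, and minimum viability is the lowest fraction of DMSO viability across doses.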

UO-31 [2] = test: as above
Procedure: as §1

SN12C [3] = test: as above
Procedure: as §1

CAKI-1 [4] = test: as above
Procedure: as §1

ACHN [5] = test: as above
Procedure: as §1

786-O [6] = test: minimum viability across doses, drug + dasatinib, relative to DMSO (fraction); higher = less growth inhibition
Procedure: as §1

769-P [7] = test: as above
Procedure: as §1

UO-31 [8] = test: as above
Procedure: as §1

A498 [9] = test: as above
Procedure: as §1

TK-10 [10] = test: as above
Procedure: as §1

SN12C [11] = test: as above
Procedure: as §1

CAKI-1 [12] = test: as above
Procedure: as §1

ACHN [13] = test: as above
Procedure: as §1

786-O [14] = test: AUC of dose-response viability curve, drug + dasatinib, normalised to DMSO (arbitrary (AUC of normalised viability)); higher = less growth inhibition
Procedure: as §1

769-P [15] = test: as above
Procedure: as §1

UO-31 [16] = test: as above
Procedure: as §1

A498 [17] = test: as above
Procedure: as §1

TK-10 [18] = test: as above
Procedure: as §1

SN12C [19] = test: as above
Procedure: as §1

CAKI-1 [20] = test: as above
Procedure: as §1

ACHN [21] = test: as above
Procedure: as §1

769-P [22] = test: GI50 of drug in presence of dasatinib; higher = less potent
Procedure: as §1

A498 [23] = test: as above
Procedure: as §1

TK-10 [24] = test: as above
Procedure: as §1

Compound	GI50 of drug (786-O [1]) [nM]	GI50 of drug (UO-31 [2]) [nM]	GI50 of drug (SN12C [3]) [nM]	GI50 of drug (CAKI-1 [4]) [nM]	GI50 of drug (ACHN [5]) [nM]	minimum viability across doses (786-O [6])	minimum viability across doses (769-P [7])	minimum viability across doses (UO-31 [8])	minimum viability across doses (A498 [9])	minimum viability across doses (TK-10 [10])	minimum viability across doses (SN12C [11])	minimum viability across doses (CAKI-1 [12])	minimum viability across doses (ACHN [13])	AUC of dose-response viability curve (786-O [14])	AUC of dose-response viability curve (769-P [15])	AUC of dose-response viability curve (UO-31 [16])	AUC of dose-response viability curve (A498 [17])	AUC of dose-response viability curve (TK-10 [18])	AUC of dose-response viability curve (SN12C [19])	AUC of dose-response viability curve (CAKI-1 [20])	AUC of dose-response viability curve (ACHN [21])	GI50 of drug (769-P [22]) [nM]	GI50 of drug (A498 [23]) [nM]	GI50 of drug (TK-10 [24]) [nM]
CO[C@H]1C[C@H]2CC[C@@H](C)[C@@](O)(O2)C(=O)C(=O)N2CCCC[C@H]2C(=O)O[C@H]([C@H](C)C[C@@H]2CC[C@H](OP(C)(C)=O)[C@H](OC)C2)CC(=O)[C@H](C)/C=C(\C)[C@@H](O)[C@@H](OC)C(=O)[C@H](C)C[C@H](C)/C=C/C=C/C=C/1C (stereo in doubt) [Deforolimus (Ridaforolimus)] + Cc1nc(Nc2ncc(C(=O)Nc3c(C)cccc3Cl)s2)cc(N2CCN(CCO)CC2)n1 [dasatinib]	< 3	28.6	25.6	16.8	4.36	0.287	0.397	0.257	0.493	0.4	0.407	0.295	0.263	1.11	1.71	1.39	1.95	1.98	1.67	1.38	1.18	–	–	–
CCN(CCO)CCCOc1ccc2c(Nc3cc(CC(=O)Nc4cccc(F)c4)n[nH]3)ncnc2c1 [Barasertib (AZD1152-HQPA)] + Cc1nc(Nc2ncc(C(=O)Nc3c(C)cccc3Cl)s2)cc(N2CCN(CCO)CC2)n1 [dasatinib]	113	> 10000	> 10000	678	–	0.157	0.346	0.842	0.841	0.685	0.628	0.402	0.417	1.61	2.09	3.22	3.31	2.65	2.41	2.04	1.83	1230	> 10000	> 10000
CO[C@H]1C[C@@H]2CC[C@@H](C)[C@@](O)(O2)C(=O)C(=O)N2CCCC[C@H]2C(=O)O[C@H]([C@H](C)C[C@@H]2CC[C@@H](OCCO)[C@H](OC)C2)CC(=O)[C@H](C)/C=C(\C)[C@@H](O)[C@@H](OC)C(=O)[C@H](C)C[C@H](C)/C=C/C=C/C=C/1C [Everolimus (RAD001)] + Cc1nc(Nc2ncc(C(=O)Nc3c(C)cccc3Cl)s2)cc(N2CCN(CCO)CC2)n1 [dasatinib]	< 3	231	> 10000	117	< 3	0.253	0.416	0.396	0.645	0.426	0.489	0.353	0.225	1.06	1.75	1.79	2.43	1.95	1.93	1.7	1.06	–	> 10000	–
CCCNC(=O)Nc1ccc(Oc2ncnc3cc(OC)c(OC)cc23)cc1Cl [KRN 633] + Cc1nc(Nc2ncc(C(=O)Nc3c(C)cccc3Cl)s2)cc(N2CCN(CCO)CC2)n1 [dasatinib]	> 10000	> 10000	> 10000	> 10000	–	0.468	0.511	0.889	0.847	0.613	0.612	0.556	0.421	2.06	2.44	3.62	3.47	2.5	2.51	2.31	1.76	> 10000	> 10000	> 10000
CN1C(=O)C(Cc2c[nH]c3ccccc23)NC1=S (configuration not stated) [Necrostatin-1] + Cc1nc(Nc2ncc(C(=O)Nc3c(C)cccc3Cl)s2)cc(N2CCN(CCO)CC2)n1 [dasatinib]	> 10000	> 10000	> 10000	> 10000	–	0.628	0.71	1.06	0.963	0.639	0.7	0.535	0.492	2.48	2.66	4.58	3.71	2.34	2.59	2.13	1.92	> 10000	> 10000	> 10000
Oc1cc(O)cc(/C=C/c2ccc(O)c(O)c2)c1 [Piceatannol] + Cc1nc(Nc2ncc(C(=O)Nc3c(C)cccc3Cl)s2)cc(N2CCN(CCO)CC2)n1 [dasatinib]	354	> 10000	> 10000	1150	–	0.31	0.498	1.24	0.903	0.653	0.603	0.135	0.167	1.91	1.97	5.19	3.83	2.59	2.46	2.07	1.78	9790	> 10000	> 10000
CO[C@H]1C[C@@H]2CC[C@@H](C)[C@@](O)(O2)C(=O)C(=O)N2CCCC[C@H]2C(=O)O[C@H]([C@H](C)C[C@@H]2CC[C@@H](O)[C@H](OC)C2)CC(=O)[C@H](C)/C=C(\C)[C@@H](O)[C@@H](OC)C(=O)[C@H](C)C[C@H](C)/C=C/C=C/C=C/1C [Rapamycin (Sirolimus)] + Cc1nc(Nc2ncc(C(=O)Nc3c(C)cccc3Cl)s2)cc(N2CCN(CCO)CC2)n1 [dasatinib]	< 3	< 3	< 3	< 3	< 3	0.26	0.389	0.277	0.52	0.445	0.451	0.256	0.247	0.989	1.59	1.15	2.01	1.76	1.68	1.11	1.03	–	1050	–
